Target: T1, Ubiquitin carboxyl-terminal hydrolase 30 (Homo sapiens, UniProt Q70CQ3)
T1 sequence (Q70CQ3 whole entry): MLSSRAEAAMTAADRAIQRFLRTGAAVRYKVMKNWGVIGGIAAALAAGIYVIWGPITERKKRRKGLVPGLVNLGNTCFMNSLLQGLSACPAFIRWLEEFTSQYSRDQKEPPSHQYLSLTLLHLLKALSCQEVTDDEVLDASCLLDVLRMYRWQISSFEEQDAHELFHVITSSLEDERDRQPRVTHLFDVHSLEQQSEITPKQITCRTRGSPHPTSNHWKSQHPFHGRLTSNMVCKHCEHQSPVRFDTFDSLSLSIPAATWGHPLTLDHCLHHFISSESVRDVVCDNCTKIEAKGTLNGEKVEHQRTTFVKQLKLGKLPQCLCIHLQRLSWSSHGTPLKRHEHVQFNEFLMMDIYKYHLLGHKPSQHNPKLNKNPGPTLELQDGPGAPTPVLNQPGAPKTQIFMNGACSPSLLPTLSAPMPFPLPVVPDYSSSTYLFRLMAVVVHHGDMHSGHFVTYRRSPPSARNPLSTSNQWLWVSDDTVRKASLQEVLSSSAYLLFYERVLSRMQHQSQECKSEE
Test: USP30 Biochemical IC50 Assay
Experimental: A typical 8-point dilution series would be 100, 30, 10, 3, 1, 0.3, 0.1, 0.03 μM final.

IC50: 11 nM
Compound: N#CN1C[C@H](NC(=O)C2NC(c3cccc(C(F)(F)F)c3)=CO2)C[C@H]1Cn1cccn1 (stereo partly specified) [US20250034122, Example 30]
